Measured values reported in PubChem BioAssay AID2060903 (Molecular Pharmacology Branch, DTP, NCI, 2025).
pIC50: −log10 of the molar value.

Test system: 377384-186-R-J1-PDC complex spheroid viability
Assay: Anticancer human tumor 377384-186-R-J1-PDC patient-derived pancreatic carcinoma cell line growth inhibition [RAS]
Conditions: for pIC50: curve of first compound; for viability, T/C: stronger effect = lower value
Outline: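 Multi-cell-type spheroids: tumor cells plus HUVEC endothelial cells and mesenchymal stem cells. RAS-pathway inhibitors were combined with targeted agents, each dosed in half-log steps down from clinical Cmax, or from 10 microM when Cmax was unknown.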

[1] = second compound 0.000949 µM, first compound 0.000949 µM
[2] = second compound 0.000949 µM, first compound 0.003 µM
[3] = second compound 0.000949 µM, first compound 0.00949 µM
[4] = second compound 0.000949 µM, first compound 0.03 µM
[5] = second compound 0.000949 µM, first compound 0.0949 µM
[6] = second compound 0.000949 µM, first compound 0.3 µM
[7] = second compound 0.003 µM, first compound 0.000949 µM
[8] = second compound 0.003 µM, first compound 0.003 µM
[9] = second compound 0.003 µM, first compound 0.00949 µM
[10] = second compound 0.003 µM, first compound 0.03 µM
[11] = second compound 0.003 µM, first compound 0.0949 µM
[12] = second compound 0.003 µM, first compound 0.3 µM
[13] = second compound 0.00949 µM, first compound 0.000949 µM
[14] = second compound 0.00949 µM, first compound 0.003 µM
[15] = second compound 0.00949 µM, first compound 0.00949 µM
[16] = second compound 0.00949 µM, first compound 0.03 µM
[17] = second compound 0.00949 µM, first compound 0.0949 µM
[18] = second compound 0.00949 µM, first compound 0.3 µM
[19] = second compound 0.03 µM, first compound 0.000949 µM
[20] = second compound 0.03 µM, first compound 0.003 µM
[21] = second compound 0.03 µM, first compound 0.00949 µM
[22] = second compound 0.03 µM, first compound 0.03 µM
[23] = second compound 0.03 µM, first compound 0.0949 µM
[24] = second compound 0.03 µM, first compound 0.3 µM
[25] = second compound 0.0949 µM, first compound 0.000949 µM
[26] = second compound 0.0949 µM, first compound 0.003 µM
[27] = second compound 0.0949 µM, first compound 0.00949 µM
[28] = second compound 0.0949 µM, first compound 0.03 µM
[29] = second compound 0.0949 µM, first compound 0.0949 µM
[30] = second compound 0.0949 µM, first compound 0.3 µM
[31] = second compound 0.3 µM, first compound 0.000949 µM
[32] = second compound 0.3 µM, first compound 0.003 µM
[33] = second compound 0.3 µM, first compound 0.00949 µM
[34] = second compound 0.3 µM, first compound 0.03 µM
[35] = second compound 0.3 µM, first compound 0.0949 µM
[36] = second compound 0.3 µM, first compound 0.3 µM
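Note: spheroids exposed to compounds for seven days before readout.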

C=CC(=O)N1CCN(c2nc(OCC3CCCN3C)nc3c(F)c(-c4nc(N)cc(C)c4C(F)(F)F)c(Cl)cc23)C(C)C1 (stereo unspecified) + CCn1c(-c2cccnc2C(C)OC)c2c3cc(ccc31)N1CCOC(CC(NC(=O)C(C(C)C)N(C)C(=O)C3(F)CCN(C(=O)C#CC(C)(C)N(C)C)CC3)C(=O)N3CCCC(N3)C(=O)OCC(C)(C)C2)C1
pIC50 (second compound 0.000949 µM): < 6.00 | pIC50 (second compound 0.003 µM): < 6.00 | pIC50 (second compound 0.00949 µM): < 6.00 | pIC50 (second compound 0.03 µM): < 6.00 | pIC50 (second compound 0.0949 µM): < 6.00 | pIC50 (second compound 0.3 µM): < 6.00 | viability, T/C (second compound 0.000949 µM, first compound 0.00316 µM): 107% | viability, T/C (second compound 0.000949 µM, first compound 0.01 µM): 108% | viability, T/C (second compound 0.000949 µM, first compound 0.0316 µM): 117% | viability, T/C (second compound 0.000949 µM, first compound 0.1 µM): 103% | viability, T/C (second compound 0.000949 µM, first compound 0.316 µM): 110% | viability, T/C (second compound 0.000949 µM, first compound 1 µM): 89.9% | viability, T/C (second compound 0.003 µM, first compound 0.00316 µM): 104% | viability, T/C (second compound 0.003 µM, first compound 0.01 µM): 96.4% | viability, T/C (second compound 0.003 µM, first compound 0.0316 µM): 103% | viability, T/C (second compound 0.003 µM, first compound 0.1 µM): 114% | viability, T/C (second compound 0.003 µM, first compound 0.316 µM): 104% | viability, T/C (second compound 0.003 µM, first compound 1 µM): 93.3% | viability, T/C (second compound 0.00949 µM, first compound 0.00316 µM): 113% | viability, T/C (second compound 0.00949 µM, first compound 0.01 µM): 97.7% | viability, T/C (second compound 0.00949 µM, first compound 0.0316 µM): 120% | viability, T/C (second compound 0.00949 µM, first compound 0.1 µM): 117% | viability, T/C (second compound 0.00949 µM, first compound 0.316 µM): 104% | viability, T/C (second compound 0.00949 µM, first compound 1 µM): 99.2% | viability, T/C (second compound 0.03 µM, first compound 0.00316 µM): 104% | viability, T/C (second compound 0.03 µM, first compound 0.01 µM): 96.7% | viability, T/C (second compound 0.03 µM, first compound 0.0316 µM): 99.7% | viability, T/C (second compound 0.03 µM, first compound 0.1 µM): 92.5% | viability, T/C (second compound 0.03 µM, first compound 0.316 µM): 99% | viability, T/C (second compound 0.03 µM, first compound 1 µM): 106% | viability, T/C (second compound 0.0949 µM, first compound 0.00316 µM): 93.3% | viability, T/C (second compound 0.0949 µM, first compound 0.01 µM): 91.3% | viability, T/C (second compound 0.0949 µM, first compound 0.0316 µM): 94.8% | viability, T/C (second compound 0.0949 µM, first compound 0.1 µM): 103% | viability, T/C (second compound 0.0949 µM, first compound 0.316 µM): 101% | viability, T/C (second compound 0.0949 µM, first compound 1 µM): 93.4% | viability, T/C (second compound 0.3 µM, first compound 0.00316 µM): 86.1% | viability, T/C (second compound 0.3 µM, first compound 0.01 µM): 86.3% | viability, T/C (second compound 0.3 µM, first compound 0.0316 µM): 96.8% | viability, T/C (second compound 0.3 µM, first compound 0.1 µM): 88.1% | viability, T/C (second compound 0.3 µM, first compound 0.316 µM): 96% | viability, T/C (second compound 0.3 µM, first compound 1 µM): 94.8%

CC1(C)CCC(Nc2ncc(C(F)(F)F)c(-c3c[nH]c4c(P(C)(C)=O)c(C#N)ccc34)n2)CN1 (stereo unspecified) + CCn1c(-c2cccnc2C(C)OC)c2c3cc(ccc31)N1CCOC(CC(NC(=O)C(C(C)C)N(C)C(=O)C3(F)CCN(C(=O)C#CC(C)(C)N(C)C)CC3)C(=O)N3CCCC(N3)C(=O)OCC(C)(C)C2)C1
pIC50 (second compound 0.000949 µM): 8.19 | pIC50 (second compound 0.003 µM): 8.16 | pIC50 (second compound 0.00949 µM): 8.20 | pIC50 (second compound 0.03 µM): 8.22 | pIC50 (second compound 0.0949 µM): 8.36 | pIC50 (second compound 0.3 µM): 8.37 | viability, T/C [1]: 96% | viability, T/C [2]: 75.9% | viability, T/C [3]: 36.1% | viability, T/C [4]: 30.8% | viability, T/C [5]: 22.1% | viability, T/C [6]: 22.8% | viability, T/C [7]: 92.7% | viability, T/C [8]: 82.8% | viability, T/C [9]: 37.5% | viability, T/C [10]: 25.2% | viability, T/C [11]: 22.9% | viability, T/C [12]: 20.3% | viability, T/C [13]: 96.6% | viability, T/C [14]: 71.8% | viability, T/C [15]: 37.8% | viability, T/C [16]: 23.5% | viability, T/C [17]: 21.9% | viability, T/C [18]: 20.6% | viability, T/C [19]: 85.2% | viability, T/C [20]: 73.4% | viability, T/C [21]: 35.3% | viability, T/C [22]: 19.5% | viability, T/C [23]: 19.3% | viability, T/C [24]: 16.3% | viability, T/C [25]: 88.5% | viability, T/C [26]: 61.7% | viability, T/C [27]: 26.1% | viability, T/C [28]: 19.4% | viability, T/C [29]: 16.6% | viability, T/C [30]: 14.8% | viability, T/C [31]: 85.2% | viability, T/C [32]: 61.6% | viability, T/C [33]: 23% | viability, T/C [34]: 18.1% | viability, T/C [35]: 15.7% | viability, T/C [36]: 13.4%

CCc1c2c(nc3ccc(O)cc13)-c1cc3c(c(=O)n1C2)COC(=O)[C@]3(O)CC + CCn1c(-c2cccnc2C(C)OC)c2c3cc(ccc31)N1CCOC(CC(NC(=O)C(C(C)C)N(C)C(=O)C3(F)CCN(C(=O)C#CC(C)(C)N(C)C)CC3)C(=O)N3CCCC(N3)C(=O)OCC(C)(C)C2)C1
pIC50 (second compound 0.000949 µM): 8.62 | pIC50 (second compound 0.003 µM): 8.70 | pIC50 (second compound 0.00949 µM): 8.70 | pIC50 (second compound 0.03 µM): 8.82 | pIC50 (second compound 0.0949 µM): > 9.02 | pIC50 (second compound 0.3 µM): > 9.02 | viability, T/C [1]: 65.9% | viability, T/C [2]: 46.6% | viability, T/C [3]: 18.3% | viability, T/C [4]: 7.36% | viability, T/C [5]: 3.93% | viability, T/C [6]: 1.53% | viability, T/C [7]: 71.5% | viability, T/C [8]: 37.9% | viability, T/C [9]: 19.8% | viability, T/C [10]: 6.9% | viability, T/C [11]: 3.65% | viability, T/C [12]: 2.05% | viability, T/C [13]: 75.7% | viability, T/C [14]: 35.7% | viability, T/C [15]: 15.8% | viability, T/C [16]: 5.59% | viability, T/C [17]: 2.54% | viability, T/C [18]: 1.72% | viability, T/C [19]: 61.3% | viability, T/C [20]: 34.7% | viability, T/C [21]: 14.4% | viability, T/C [22]: 8.65% | viability, T/C [23]: 3.55% | viability, T/C [24]: 1.17% | viability, T/C [25]: 49.1% | viability, T/C [26]: 34.9% | viability, T/C [27]: 14.8% | viability, T/C [28]: 5.24% | viability, T/C [29]: 3.02% | viability, T/C [30]: 1.67% | viability, T/C [31]: 45.4% | viability, T/C [32]: 30.3% | viability, T/C [33]: 7.93% | viability, T/C [34]: 4.05% | viability, T/C [35]: 2.71% | viability, T/C [36]: 1.08%
